Patent US7875609B2, “Urea derivatives, processes for their preparation, their use as medicaments, and pharmaceutical compositions containing them” (Galapagos Sasu, priority 2005, dated 2011)
Where a name gives a salt, the structure may show the parent alone.

Assays:
[1] = tested on: serum level of PTH (1-34+1-84); test: PTH measurement on intact rats (serum PTH by IRMA after oral administration); type: in vivo, rat; conditions: for inhibition in vivo at 30 mg/kg: Rattus norvegicus, 0.5 h, oral, male Sprague-Dawley rats fasted 16 h, serum 30 min after dosing, read-out: % PTH reduction at 30 min. relative to the untreated group (intact rat)
Experimental: I—PTH Measurement on Intact Rats
After fasting for 16 hours, some male rats (Sprague-Dawley, 250-300 g, Charles River France or CERJ) received an oral administration of the compounds to be tested or their vehicle. 30 min. after this bolus, the animals were slaughtered by decapitation using a guillotine. The arterial and venous blood was collected at 4° C. and centrifuged cold, then the sera were frozen at −20° C. After thawing, the serum level of PTH (1-34+1-84) was measured by a radioimmunology test (IRMA kit, rat, Immutopics).

[2] = tested on: serum level of PTH (1-34+1-84); test: PTH measurement in rats with chronic renal failure (5/6 nephrectomy); type: in vivo, rat; conditions: oral, dose 10 mg/kg, 5/6 nephrectomised rats, ten days after nephrectomy, fasted 16 h, serum 30 min after dosing
Description: II—Rats with Chronic Renal Failure
Chronic renal failure (CRF) was induced in male rats (220-250 g, Sprague-Dawley, CERJ) by ablation of ⅚ of the total renal mass. After anaesthesia (Imalgene 1000), the rats were subjected to exeresis of the right kidney and ablation of both ends of the left kidney, representing approximately ⅔ of the organ).
The incision was cauterised by application of dry ice. To compensate for the loss of blood volume, the animals received an intravenous injection of physiological serum. Two days after the procedure and for the remainder of the trial, the rats were fed with a standard diet (UAR or Safe) and drank phosphate-enriched (1.2%) Volvic® water at will. The procedure was carried out either at the supplier's or at the laboratory. Ten days after nephrectomy, the animals which had been fasting for 16 hours entered the trial. The compounds to be tested or their vehicle were administered orally 30 min. prior to sacrifice. The arterial and venous blood was at 4° C. after decapitation using a guillotine and was centrifuged cold. The sera were frozen a −20° C. After thawing, the serum level of PTH (1-34+1-84) was measured by a radioimmunology test (IRMA kit, rat, Immutopics).

With `O=C(Nc1cccc(-c2ccco2)c1)N(CCC(c1ccccc1)c1ccccc1)CCN1CCOCC1` [Example 76A, 1-(3,3-diphenylpropyl)-3-(3-furan-2-ylphenyl)-1-(2-morpholin-4-ylethyl)urea hydrochloride] the inhibition in vivo at 30 mg/kg [1] was 14%.
For `Cl.O=C(Nc1cccc(-c2cnco2)c1)N(CCC(c1ccccc1)c1ccccc1)CCN1CCOCC1` [Example 68, 1-(3,3-diphenylpropyl)-1-(2-morpholin-4-ylethyl)-3-(3-oxazol-5-ylphenyl)urea hydrochloride], the inhibition in vivo at 30 mg/kg [1] was 94%, the “PTH level reduced relative to the control group” value ([1]; oral administration, dose of 30 mg/kg, intact rats, 30 min) was 94% and the “% PTH reduction at 30 min. relative to the untreated group (CRF rat)” value [2] was 67%.
Compound `CC(C)OC(=O)c1cccc(NC(=O)N(CCC(c2ccccc2)c2ccccc2)CCN2CCOCC2)c1` [Example 48, 3-[3-(3,3-diphenylpropyl)-3-(2-morpholin-4-ylethyl)ureido]benzoic acid isopropyl ester hydrochloride] has an inhibition in vivo at 30 mg/kg [1] of 32%.
In the case of `COC(=O)c1cccc(NC(=O)N(CCC(c2ccccc2)c2ccccc2)CCN2CCOCC2)c1` [Example 1, 3-[3-(3,3-diphenylpropyl)-3-(2-morpholin-4-ylethyl)ureido]benzoic acid methyl ester], the inhibition in vivo at 30 mg/kg [1] is reported as 56%.
For `CC(C)OC(=O)c1cc(NC(=O)N(CCC(c2ccccc2)c2ccccc2)CCN2CCOCC2)ccc1Cl` [Example 51, 2-chloro-5-[3-(3,3-diphenylpropyl)-3-(2-morpholin-4-ylethyl)ureido]benzoic acid isopropyl ester hydrochloride], the inhibition in vivo at 30 mg/kg [1] was 13%.
With `O=C(Nc1ccc(Cl)c(C(F)(F)F)c1)N(CCC(c1ccccc1)c1ccccc1)CCN1CCOCC1` [Example 43, 3-(4-chloro-3-trifluoromethylphenyl)-1-(3,3-diphenylpropyl)-1-(2-morpholin-4-ylethyl)urea hydrochloride] the inhibition in vivo at 30 mg/kg [1] was 43%.
With `CCC(=O)c1cccc(NC(=O)N(CCC(c2ccccc2)c2ccccc2)CCN2CCOCC2)c1` [Example 42] the inhibition in vivo at 30 mg/kg [1] was 69%.
`CC(C)(C)OC(=O)c1cccc(NC(=O)N(CCC(c2ccccc2)c2ccccc2)CCN2CCOCC2)c1` [Example 40, 3-[3-(3,3-diphenylpropyl)-3-(2-morpholin-4-ylethyl)ureido]benzoic acid tertbutyl ester hydrochloride] showed an inhibition in vivo at 30 mg/kg [1] of 21%.
`Cn1nnc(-c2cccc(NC(=O)N(CCC(c3ccccc3)c3ccccc3)CCN3CCOCC3)c2)n1` (single isomer, unassigned) [Example 85, 1-(3,3-diphenylpropyl)-3-[3-(2-methyl-2H-tetrazol-5-yl)phenyl]-1-(2-morpholin-4-ylethyl)urea] was tested, and the inhibition in vivo at 30 mg/kg [1] was 88% and the “% PTH reduction at 30 min. relative to the untreated group (CRF rat)” value [2] was 70%.
